Laboratory results reported in patent US8461160B2, “Dihydropyrimidinones” (Hoffmann-La Roche, Inc., priority 2009, dated 2013).

Target: T1, BACE2 (Homo sapiens, UniProt Q9Y5Z0)
T1 construct: BACE2 enzyme ectodomain (derived from plasmid “pET17b-T7-hu proBACE2”) was prepared as described in Ostermann et al; T7 tag (N); made in house
T1 sequence (Q9Y5Z0 21-473 limits assumed): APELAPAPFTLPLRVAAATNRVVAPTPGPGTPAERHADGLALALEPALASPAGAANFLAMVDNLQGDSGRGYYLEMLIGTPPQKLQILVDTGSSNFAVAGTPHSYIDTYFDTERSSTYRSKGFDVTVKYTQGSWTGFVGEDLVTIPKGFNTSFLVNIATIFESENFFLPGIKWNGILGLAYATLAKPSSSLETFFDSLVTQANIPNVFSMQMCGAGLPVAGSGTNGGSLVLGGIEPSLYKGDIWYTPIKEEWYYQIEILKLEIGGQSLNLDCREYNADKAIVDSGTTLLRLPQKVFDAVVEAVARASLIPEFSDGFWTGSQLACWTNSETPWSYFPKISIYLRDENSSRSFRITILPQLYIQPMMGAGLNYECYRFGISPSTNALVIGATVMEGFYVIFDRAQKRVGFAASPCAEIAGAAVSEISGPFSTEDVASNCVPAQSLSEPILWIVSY
Assay: Fluorescent-peptide cleavage assay for BACE2 inhibition
Type: biochemical
Conditions: BACE2 enzyme ectodomain, fluorescent peptide WS EVNLD AEFRC-MR121, assay buffer pH 4.5, room temperature
Protocol: Fluorescent-Peptide Cleavage Assay for BACE2 Inhibition
The pro-enzyme was stored at 4° C. at a concentration of 70 μg/ml.
A fluorescent peptide with the amino acid sequence WS EVNLD AEFRC-MR121 was synthesised and a stock solution of 1.5 mM in DMSO prepared and stored at −20° C. MR121 is a fluorophore with an excitation wavelength of 630 nm and emission wavelength of 695 nm. The MR121 fluorescence is quenched by the N-terminal tryptophan until the peptide is cleaved by BACE2.
Assays were all made in a Corning 384-well black polystyrene non-binding surface microtitre plate with clear flat bottom and using a Plate:Vision (Perkin Elmer) fluorescence reader. To perform the assay an 80 nM solution of BACE2 was prepared in assay buffer (assay buffer is 100 mM Na-acetate; 20 mM EDTA; 0.05% BSA; pH 4.5) and incubated at room temperature for 1 hour to activate the enzyme. 39 μl of the activated BACE2 was placed in each assay well, followed by 1 μl compound to be tested at an appropriate concentration in 100% DMSO. The plate was then mixed and incubated for 10 minutes at room temperature.
The assay readout is the rate of change of fluorescence intensity giving a relative measure of BACE2 activity. Small values correspond to high inhibition and larger values to low inhibition. […] IC50 values were determined using these assay values generated for a range of inhibitor concentrations and the curve fitting software XLfit (IDBS) using the Sigmoidal Dose-Response Model.

Structure (SMILES) | IC50
CN1C(=O)C[C@@](C)(c2cccc(NC(=O)c3nc(Cl)ccc3Cl)c2)N=C1N [Example 54, 3,6-Dichloro-pyridine-2-carboxylic acid [3-((S)-2-amino-1,4-dimethyl-6-oxo-1,4,5,6-tetrahydro-pyrimidin-4-yl)-phenyl]-amide] | 0.976 µM
Cc1cc(Cl)cnc1C(=O)Nc1ccc(F)c([C@@]2(C)N=C(N)N(C)C(=O)C2(C)C)c1 [Example 99, 5-Chloro-3-methyl-pyridine-2-carboxylic acid [3-((S)-2-amino-1,4,5,5-tetramethyl-6-oxo-1,4,5,6-tetrahydro-pyrimidin-4-yl)-4-fluoro-phenyl]amide] | 0.013 µM
Cc1cc(C(=O)Nc2cccc([C@]3(C)CC(=O)N(C)C(N)=N3)c2)c(C)s1 [Example 3, 2,5-Dimethyl-thiophene-3-carboxylic acid [3-((S)-2-amino-1,4-dimethyl-6-oxo-1,4,5,6-tetrahydro-pyrimidin-4-yl)-phenyl]amide] | 0.086 µM
CN1C(=O)C[C@@](C)(c2cccc(NC(=O)c3cnc(Cl)cn3)c2)N=C1N [Example 25, 5-Chloro-pyrazine-2-carboxylic acid [3-((S)-2-amino-1,4-dimethyl-6-oxo-1,4,5,6-tetrahydro-pyrimidin-4-yl)-phenyl]-amide] | 0.01 µM
CN1C(=O)C(C)(C)[C@@](C)(c2cccc(NC(=O)c3ncccc3-c3ccccc3Cl)c2)N=C1N [Example 97, 3-(2-Chloro-phenyl)-pyridine-2-carboxylic acid [3-((R)-2-amino-1,4,5,5-tetramethyl-6-oxo-1,4,5,6-tetrahydro-pyrimidin-4-yl)-phenyl]amide] | 0.18 µM
CN1C(=O)C[C@@](C)(c2cccc(NC(=O)c3cc4ccccc4s3)c2)N=C1N [Example 68, Benzo[b]thiophene-2-carboxylic acid [3-((S)-2-amino-1,4-dimethyl-6-oxo-1,4,5,6-tetrahydro-pyrimidin-4-yl)-phenyl]-amide] | 0.102 µM
Cc1cc(Cl)cnc1C(=O)Nc1cccc([C@@]2(C)N=C(N)N(C)C(=O)C2(C)C)c1 [Example 95, 5-Chloro-3-methyl-pyridine-2-carboxylic acid [3-((R)-2-amino-1,4,5,5-tetramethyl-6-oxo-1,4,5,6-tetrahydro-pyrimidin-4-yl)-phenyl]amide] | 0.019 µM
CCc1ccc(C(=O)Nc2cccc([C@]3(C)CC(=O)N(C)C(N)=N3)c2)nc1 [Example 83, 5-Ethyl-pyridine-2-carboxylic acid [3-((S)-2-amino-1,4-dimethyl-6-oxo-1,4,5,6-tetrahydro-pyrimidin-4-yl)-phenyl]-amide] | 0.04 µM
CN1C(=O)C[C@@](C)(c2cc(NC(=O)c3ccccn3)ccc2F)N=C1N [Example 47, Pyridine-2-carboxylic acid [3-((S)-2-amino-1,4-dimethyl-6-oxo-1,4,5,6-tetrahydro-pyrimidin-4-yl)-4-fluoro-phenyl]amide] | 0.008 µM
CN1C(=O)C[C@@](C)(c2cccc(NC(=O)c3ncc(Cl)cc3Cl)c2)N=C1N [Example 64, 3,5-Dichloro-pyridine-2-carboxylic acid [3-((S)-2-amino-1,4-dimethyl-6-oxo-1,4,5,6-tetrahydro-pyrimidin-4-yl)-phenyl]-amide] | 0.06 µM
COc1cccnc1C(=O)Nc1ccc(F)c([C@@]2(C)N=C(N)N(C)C(=O)C2(C)C)c1 [Example 104, 3-Methoxy-pyridine-2-carboxylic acid [3-((S)-2-amino-1,4,5,5-tetramethyl-6-oxo-1,4,5,6-tetrahydro-pyrimidin-4-yl)-4-fluoro-phenyl]amide] | 0.15 µM
Cc1ccc(C(=O)Nc2ccc(F)c([C@@]3(C)N=C(N)N(C)C(=O)C3(C)C)c2)s1 [Example 102, 5-Methyl-thiophene-2-carboxylic acid [3-((S)-2-amino-1,4,5,5-tetramethyl-6-oxo-1,4,5,6-tetrahydro-pyrimidin-4-yl)-4-fluoro-phenyl]amide] | 0.052 µM
CN1C(=O)C(C)(C)[C@@](C)(c2cc(NC(=O)c3ccc(F)cn3)ccc2F)N=C1N [Example 114, 5-Fluoro-pyridine-2-carboxylic acid [3-((S)-2-amino-1,4,5,5-tetramethyl-6-oxo-1,4,5,6-tetrahydro-pyrimidin-4-yl)-4-fluoro-phenyl]amide] | 0.043 µM
CN1C(=O)C(C)(C)[C@@](C)(c2cc(NC(=O)c3ccc(Cl)cn3)ccc2F)N=C1N [Example 53, 5-Chloro-pyridine-2-carboxylic acid [3-((S)-2-amino-1,4,5,5-tetramethyl-6-oxo-1,4,5,6-tetrahydro-pyrimidin-4-yl)-4-fluoro-phenyl]amide] | 0.008 µM
Cc1nc(C(=O)Nc2cccc([C@]3(C)CC(=O)N(C)C(N)=N3)c2)cs1 [Example 67, 2-Methyl-thiazole-4-carboxylic acid [3-((S)-2-amino-1,4-dimethyl-6-oxo-1,4,5,6-tetrahydro-pyrimidin-4-yl)-phenyl]-amide] | 0.16 µM
CN1C(=O)C[C@@](C)(c2cccc(NC(=O)c3cc4ccccc4cn3)c2)N=C1N [Example 57, Isoquinoline-3-carboxylic acid [3-((S)-2-amino-1,4-dimethyl-6-oxo-1,4,5,6-tetrahydro-pyrimidin-4-yl)-phenyl]amide] | 0.11 µM
Cc1cncc(C(=O)Nc2cccc([C@]3(C)CC(=O)N(C)C(N)=N3)c2)n1 [Example 24, 6-Methyl-pyrazine-2-carboxylic acid [3-((S)-2-amino-1,4-dimethyl-6-oxo-1,4,5,6-tetrahydro-pyrimidin-4-yl)-phenyl]amide] | 0.217 µM

The next lines start with the values.

IC50 | Structure (SMILES)
0.16 µM | COc1cccnc1C(=O)Nc1cccc([C@]2(C)CC(=O)N(C)C(N)=N2)c1 [Example 65, 3-Methoxy-pyridine-2-carboxylic acid [3-((S)-2-amino-1,4-dimethyl-6-oxo-1,4,5,6-tetrahydro-pyrimidin-4-yl)-phenyl]-amide]
0.56 µM | CN1C(=O)C(C)(C)[C@@](C)(c2cc(NC(=O)c3nc(Cl)ccc3C(F)(F)F)ccc2F)N=C1N [Example 119, 6-Chloro-3-trifluoromethyl-pyridine-2-carboxylic acid [3-((S)-2-amino-1,4,5,5-tetramethyl-6-oxo-1,4,5,6-tetrahydro-pyrimidin-4-yl)-4-fluoro-phenyl]amide]
0.007 µM | CN1C(=N)N[C@](C)(c2cc(NC(=O)c3ccc(Cl)cn3)ccc2F)CC1=O [Example 45, 5-Chloro-pyridine-2-carboxylic acid [3-((S)-2-amino-1,4-dimethyl-6-oxo-1,4,5,6-tetrahydro-pyrimidin-4-yl)-4-fluoro-phenyl]amide]
0.042 µM | CN1C(=O)C[C@@](C)(c2cccc(NC(=O)c3c[nH]c(=O)cn3)c2)N=C1N [Example 36, 5-Oxo-4,5-dihydro-pyrazine-2-carboxylic acid [3-((S)-2-amino-1,4-dimethyl-6-oxo-1,4,5,6-tetrahydro-pyrimidin-4-yl)-phenyl]-amide]
0.017 µM | Cc1cc(Cl)cnc1C(=O)Nc1cccc([C@]2(C)CC(=O)N(C)C(N)=N2)c1 [Example 75, 5-Chloro-3-methyl-pyridine-2-carboxylic acid [3-((S)-2-amino-1,4-dimethyl-6-oxo-1,4,5,6-tetrahydro-pyrimidin-4-yl)-phenyl]-amide]
0.087 µM | CC[C@@]1(c2cccc(NC(=O)c3ncccc3Cl)c2)CC(=O)N(C)C(N)=N1 [Example 43, 3-Chloro-pyridine-2-carboxylic acid [3-((S)-2-amino-4-ethyl-1-methyl-6-oxo-1,4,5,6-tetrahydro-pyrimidin-4-yl)-phenyl]-amide]
1.55 µM | CN1C(=O)C[C@@](C)(c2cccc(NC(=O)c3csc(C(F)(F)F)n3)c2)N=C1N [Example 66, 2-Trifluoromethyl-thiazole-4-carboxylic acid [3-((S)-2-amino-1,4-dimethyl-6-oxo-1,4,5,6-tetrahydro-pyrimidin-4-yl)-phenyl]-amide]
0.014 µM | CN1C(=O)C[C@@](C)(c2cccc(NC(=O)c3ccc(Cl)s3)c2)N=C1N [Example 2, 5-Chloro-thiophene-2-carboxylic acid [3-((S)-2-amino-1,4-dimethyl-6-oxo-1,4,5,6-tetrahydro-pyrimidin-4-yl)-phenyl]amide]
0.17 µM | CN1C(=O)C[C@@](C)(c2cccc(NC(=O)c3ccon3)c2)N=C1N [Example 81, Isoxazole-3-carboxylic acid [3-((S)-2-amino-1,4-dimethyl-6-oxo-1,4,5,6-tetrahydro-pyrimidin-4-yl)-phenyl]-amide]
